The text below walks through data of US9682959B2, “Ethynyl derivatives” (Hoffmann-La Roche Inc., priority 2013, dated 2017).

The target in the experiment is rat mGlu 5a receptor (Rattus norvegicus (Rat), UniProt P31424). Description: MPEP binding / [Ca2+]i FLIPR measurement on mGlu 5a transfected EBNA cells, antagonists tested against 10 μM glutamate. As to conditions: rat mGlu 5a receptor transiently transfected into EBNA cells; Ki calculated from IC50. The method, then:
The pharmacological activity of the compounds was tested using the following method: cDNA encoding rat mGlu 5a receptor was transiently transfected into EBNA cells using a procedure described by E.-J. Schlaeger and K. Christensen (Cytotechnology 1998, 15, 1-13). [Ca^2+]i measurements were performed on mGlu 5a transfected EBNA cells after incubation of the cells with Fluo 3-AM (obtainable by FLUKA, 0.5 μM final concentration) for 1 hour at 37° C. followed by 4 washes with assay buffer (DMEM supplemented with Hank's salt and 20 mM HEPES. [Ca^2+]i measurements were done using a fluorometric imaging plate reader (FLIPR, Molecular Devices Corporation, La Jolla, Calif., USA). When compounds were evaluated as antagonists they were tested against 10 μM glutamate as agonist.
The inhibition (antagonists) curves were fitted with a four parameter logistic equation giving IC50, and Hill coefficient using the iterative non linear curve fitting software Origin (Microcal Software Inc., Northampton, Mass., USA).
The Ki values of the compounds tested are given. The Ki value is defined by the following formula:
[formula] in which the IC50 values are those concentrations of the compounds tested in μM by which 50% of the effect of compounds are antagonized. [L] is the concentration and the EC50 value is the concentration of the compounds in μM which brings about 50% stimulation.
The compounds of the present invention are mGluR5 receptor antagonists.

rat mGlu 5a receptor, sequence (P31424 other isoform, or with tags, fused parts or gaps): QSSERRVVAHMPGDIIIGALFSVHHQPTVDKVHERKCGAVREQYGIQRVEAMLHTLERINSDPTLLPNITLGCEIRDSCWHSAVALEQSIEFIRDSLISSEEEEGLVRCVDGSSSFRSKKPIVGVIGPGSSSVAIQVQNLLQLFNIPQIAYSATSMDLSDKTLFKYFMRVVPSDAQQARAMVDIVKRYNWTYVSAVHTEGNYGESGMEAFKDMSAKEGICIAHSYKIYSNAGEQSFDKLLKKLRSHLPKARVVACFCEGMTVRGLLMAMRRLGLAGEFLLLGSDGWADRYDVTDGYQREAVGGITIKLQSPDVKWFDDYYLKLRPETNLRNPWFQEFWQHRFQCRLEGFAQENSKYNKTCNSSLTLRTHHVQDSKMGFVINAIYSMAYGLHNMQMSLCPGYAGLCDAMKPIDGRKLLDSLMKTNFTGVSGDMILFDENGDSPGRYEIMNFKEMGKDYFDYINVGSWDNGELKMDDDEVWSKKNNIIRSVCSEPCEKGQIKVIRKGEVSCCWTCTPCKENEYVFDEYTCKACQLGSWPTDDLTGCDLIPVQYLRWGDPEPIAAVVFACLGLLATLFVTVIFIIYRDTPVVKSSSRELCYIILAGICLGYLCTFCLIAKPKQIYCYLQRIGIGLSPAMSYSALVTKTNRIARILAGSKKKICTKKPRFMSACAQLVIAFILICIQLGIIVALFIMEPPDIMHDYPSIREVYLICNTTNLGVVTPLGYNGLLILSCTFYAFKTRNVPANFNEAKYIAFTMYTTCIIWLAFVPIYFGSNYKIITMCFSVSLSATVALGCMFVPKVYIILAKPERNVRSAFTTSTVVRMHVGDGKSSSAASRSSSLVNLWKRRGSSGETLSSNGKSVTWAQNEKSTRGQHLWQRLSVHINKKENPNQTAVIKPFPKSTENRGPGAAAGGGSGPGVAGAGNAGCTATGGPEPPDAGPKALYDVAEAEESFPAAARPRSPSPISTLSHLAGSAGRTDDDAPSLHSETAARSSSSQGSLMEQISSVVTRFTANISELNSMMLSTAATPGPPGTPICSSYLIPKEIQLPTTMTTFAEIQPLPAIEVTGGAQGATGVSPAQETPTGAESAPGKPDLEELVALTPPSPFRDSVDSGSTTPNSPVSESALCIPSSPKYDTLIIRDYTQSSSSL

Regarding `CN1C(=O)C(C)(C)N=C1c1ccc(C#Cc2cccc(F)c2)cn1` [Example 1, 2-[5-[2-(3-Fluorophenyl)ethynyl]-2-pyridyl]-3,5,5-trimethyl-imidazol-4-one], the inhibition constant (Ki) was 18 nM.

Take `CN1C(=O)C(C)(C)N=C1c1ccc(C#Cc2ccccc2)cn1` [Example 2, 3,5,5-Trimethyl-2-[5-(2-phenylethynyl)-2-pyridyl]imidazol-4-one]: the Ki is 38 nM.

With `CN1C(=O)C(C)(C)N=C1c1ccc(C#Cc2cccc(Cl)c2)cn1` [Example 3, 2-[5-[2-(3-Chlorophenyl)ethynyl]-2-pyridyl]-3,5,5-trimethyl-imidazol-4-one], the Ki was 16 nM.

With `CN1C(=O)C(C)(C)N=C1c1ncc(C#Cc2cccc(Cl)c2)cn1` [Example 4, 2-[5-[2-(3-Chlorophenyl)ethynyl]-2-pyrimidyl]-3,5,5-trimethyl-imidazol-4-one], the Ki is 80 nM.

Turning to `CN1C(=O)C(C)(C)N=C1c1ncc(C#Cc2ccccc2)cn1` [Example 5, 3,5,5-Trimethyl-2-[5-(2-phenylethynyl)-2-pyrimidyl]imidazol-4-one], the Ki is 281 nM.

For the compound `CN1C(=O)C(C)(C)N=C1c1ncc(C#Cc2cccc(F)c2)cn1` [Example 6, 2-[5-[2-(3-Fluorophenyl)ethynyl]-2-pyrimidyl]-3,5,5-trimethyl-imidazol-4-one], the Ki is 280 nM.

One may read the Ki as a measure of affinity in units of concentration, obtained from inhibition or displacement.
